In patent US10053453B2, “Compounds and their use as BACE inhibitors” (AstraZeneca AB, priority 2014, dated 2018):
Read-outs that look alike come from different tables or passages of the source.

Legend:
SH-SY5Y cells = experiment: sAPPβ release assay
Human BACE1 = target: T1, Human BACE1 (Homo sapiens, UniProt P56817); experiment: Diluted TR-FRET assay; type: biochemical; conditions: 50 times less enzyme, 6.5 h reaction time at r.t.; read-out: IC50 BACE1 (dil. TR-FRET)
T1 construct: the soluble part of the human β-Secretase1 (AA1-AA460) was cloned using the BACE1(1-460)-(AVT)-Fc-pGEN-IRES-neo mammalian expression vector; AVT linker (C); made in house
T1 sequence (P56817 22-460): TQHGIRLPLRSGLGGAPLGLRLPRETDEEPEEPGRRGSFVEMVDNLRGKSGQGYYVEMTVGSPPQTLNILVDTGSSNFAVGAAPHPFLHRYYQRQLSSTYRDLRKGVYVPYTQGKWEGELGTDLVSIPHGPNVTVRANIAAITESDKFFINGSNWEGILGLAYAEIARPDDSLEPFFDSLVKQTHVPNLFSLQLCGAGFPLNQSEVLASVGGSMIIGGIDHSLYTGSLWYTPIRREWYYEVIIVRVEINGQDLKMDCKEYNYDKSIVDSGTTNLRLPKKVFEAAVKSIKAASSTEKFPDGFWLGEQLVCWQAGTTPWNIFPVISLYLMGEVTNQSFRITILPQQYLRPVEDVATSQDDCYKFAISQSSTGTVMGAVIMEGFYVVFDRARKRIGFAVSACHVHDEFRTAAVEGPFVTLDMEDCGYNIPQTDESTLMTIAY
Summary of the method: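 Human BACE1 (residues 1-460) was fused to an IgG1 Fc affinity tag and stably expressed in HEK 293 cells. Using a Multidrop Combi, 7 μL enzyme was added to 0.8 μL compound in dimethylsulphoxide and incubated 10 minutes. Reactions were stopped with 5.5 μL NaOAC Stop solution (pH 9), and TR-FRET fluorescence was read on a Pherastar HTRF module.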

Human BACE2 = target: T2, Human BACE2 (Homo sapiens, UniProt Q9Y5Z0); experiment: TR-FRET assay; type: biochemical; conditions: substrate 100 nM, pH4.5
T2 construct: the soluble part of the human β-Secretase2 (AA1-AA473) was cloned using BACE2(1-473)-(AVT)-Fc-pDEST12.2 mammalian expression vector; AVT linker (C); made in house
T2 sequence (Q9Y5Z0 21-473): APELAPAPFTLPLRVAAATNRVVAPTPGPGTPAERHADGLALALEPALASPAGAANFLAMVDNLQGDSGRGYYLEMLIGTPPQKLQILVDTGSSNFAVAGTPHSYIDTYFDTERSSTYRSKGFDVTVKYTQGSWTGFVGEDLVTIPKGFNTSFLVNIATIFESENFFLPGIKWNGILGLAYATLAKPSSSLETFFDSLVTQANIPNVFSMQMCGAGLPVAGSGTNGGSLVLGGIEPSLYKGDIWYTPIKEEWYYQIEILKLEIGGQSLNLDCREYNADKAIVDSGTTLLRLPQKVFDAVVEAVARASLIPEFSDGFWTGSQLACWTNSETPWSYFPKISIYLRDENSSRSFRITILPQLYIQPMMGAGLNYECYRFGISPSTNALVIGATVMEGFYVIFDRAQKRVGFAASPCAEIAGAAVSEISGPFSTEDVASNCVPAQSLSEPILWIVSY

[1] = Homo sapiens, SH-SY5Y, read-out: IC50 Cell (sAPPβ release, nM), SH-SY5Y cells, compounds incubated 16-17 h
[2] = read-out: IC50 Cell (sAPPβ release), SH-SY5Y cells, compounds incubated 16-17 h

Compound `NC1=NC2(CO1)c1cc(-c3cncnc3)ccc1CC2C1CCOCC1` (stereo not drawn) [Compound 94, 6-(pyrimidin-5-yl)-2-(tetrahydro-2H-pyran-4-yl)-2,3-dihydro-5′H-spiro[indene-1,4′-oxazol]-2′-amine] has an IC50 (SH-SY5Y cells; [1]) of 331 nM, an IC50 (Human BACE1) of 4660 nM and an IC50 (Human BACE2; enzyme 2.7 μg/mL) of 701 nM.
In the case of `CC1(C2CCOCC2)Cc2ccc(-c3cncnc3)cc2C12COC(N)=N2` (stereo not drawn) [Compound 95, 2-methyl-6-(pyrimidin-5-yl)-2-(tetrahydro-2H-pyran-4-yl)-2,3-dihydro-5′H-spiro[indene-1,4′-oxazol]-2′-amine], the IC50 (SH-SY5Y cells; [2]) is reported as 889 nM, the IC50 (Human BACE1) is reported as over 5000 nM and the IC50 (Human BACE2; enzyme 2.7 μg/mL) is reported as over 5000 nM.
Compound `CC1(C2Cc3ccc(-c4cncnc4)cc3C23COC(N)=N3)CCOCC1` (stereo not drawn) [Compound 96, 2-(4-methyltetrahydro-2H-pyran-4-yl)-6-(pyrimidin-5-yl)-2,3-dihydro-5′H-spiro[indene-1,4′-oxazol]-2′-amine] has an IC50 (SH-SY5Y cells; [1]) of 205 nM, an IC50 (Human BACE1) of over 5000 nM and an IC50 (Human BACE2; enzyme 2.7 μg/mL) of 1790 nM.
In the case of `C[C@@H]1CC(C2Cc3ccc(-c4cncnc4)cc3C23COC(N)=N3)C[C@H](C)O1` (stereo partly drawn) [Compound 97, 2-((2R,6S)-2,6-dimethyltetrahydro-2H-pyran-4-yl)-6-(pyrimidin-5-yl)-2,3-dihydro-5′H-spiro[indene-1,4′-oxazol]-2′-amine], the IC50 (SH-SY5Y cells; [1]) is reported as 1420 nM, the IC50 (Human BACE1) is reported as over 5000 nM and the IC50 (Human BACE2; enzyme 2.7 μg/mL) is reported as over 5000 nM.
Work on `NC1=NC2(CO1)c1cc(-c3cncnc3)ccc1CC2N1CCOCC1` (stereo not drawn) [Compound 98, 2-morpholino-6-(pyrimidin-5-yl)-2,3-dihydro-5′H-spiro[indene-1,4′-oxazol]-2′-amine] yielded an IC50 (SH-SY5Y cells; Homo sapiens, SH-SY5Y, read-out: IC50 Cell (sAPPβ release, nM)) of 1840 nM, an IC50 (Human BACE1) of over 5000 nM and an IC50 (Human BACE2; enzyme 2.7 μg/mL) of over 1580 nM.
In the case of `CC#Cc1cncc(-c2ccc3c(c2)C2(COC(N)=N2)C(N2CCOCC2)C3)c1` (stereo not drawn) [Compound 99, 2-morpholino-6-(5-(prop-1-yn-1-yl)pyridin-3-yl)-2,3-dihydro-5′H-spiro[indene-1,4′-oxazol]-2′-amine], the IC50 (SH-SY5Y cells; [1]) is reported as 489 nM, the IC50 (Human BACE1) is reported as 3190 nM and the IC50 (Human BACE2; enzyme 2.7 μg/mL) is reported as 519 nM.
`COc1cc(C#N)cc(-c2ccc3c(c2)C2(COC(N)=N2)C(N2CCOCC2)C3)c1` (stereo not drawn) [Compound 100, 3-(2′-amino-2-morpholino-2,3-dihydro-5′H-spiro[indene-1,4′-oxazol]-6-yl)-5-methoxybenzonitrile] was tested, and the IC50 (SH-SY5Y cells; [1]) was 2160 nM, the IC50 (Human BACE1) was over 5000 nM and the IC50 (Human BACE2; enzyme 2.7 μg/mL) was 1370 nM.
`COc1cc(C#N)cc(-c2ccc3c(c2)C2(COC(N)=N2)C(C)(C2CCOCC2)C3)c1` (stereo not drawn) [Compound 101, 3-(2′-amino-2-methyl-2-(tetrahydro-2H-pyran-4-yl)-2,3-dihydro-5′H-spiro[indene-1,4′-oxazol]-6-yl)-5-methoxybenzonitrile] gave an IC50 (SH-SY5Y cells; [1]) of 75.6 nM, an IC50 (Human BACE1) of 194 nM and an IC50 (Human BACE2; enzyme 2.7 μg/mL) of 274 nM.
Work on `CC1(C2CCOCC2)Cc2ccc(-c3cncnc3)cc2C12COC(N)=N2` (stereo not drawn) [Compound 102, 2-methyl-6-(pyrimidin-5-yl)-2-(tetrahydro-2H-pyran-4-yl)-2,3-dihydro-5′H-spiro[indene-1,4′-oxazol]-2′-amine] yielded an IC50 (SH-SY5Y cells; [2]) of 32.9 nM, an IC50 (Human BACE1) of 2190 nM and an IC50 (Human BACE2; enzyme […]) of over 5000 nM.
In the case of `[2H]C([2H])([2H])O[C@H]1CC[C@@]2(Cc3ccc(-c4cc(Cl)cnc4F)cc3[C@]23N=C(N)OC3([2H])[2H])C[C@@H]1C` [Compound 103, {(1S,1′R,3S,4S)-6′-(2-fluoro-5-chloropyridin-3-yl)-4-(methoxy-d3)-3-methyl-3′H,5″H-dispiro[cyclohexane-1,2′-indene-1′,4″-oxazol]-5″,5″-d2-2″-amine}], the IC50 (SH-SY5Y cells; [1]) is reported as 0.6 nM, the IC50 (Human BACE1) is reported as 22 nM and the IC50 (Human BACE2; enzyme 2.7 μg/mL) is reported as 55 nM.
Compound `[2H]C([2H])([2H])O[C@H]1CC[C@@]2(Cc3ccc(-c4cnccc4F)cc3[C@]23N=C(N)OC3([2H])[2H])C[C@@H]1C` [Compound 104, {(1S,1′R,3S,4S)-6′-(4-fluoropyridin-3-yl)-4-(methoxy-d3)-3-methyl-3′H,5″H-dispiro[cyclohexane-1,2′-indene-1′,4″-oxazol]-5″,5″-d2-2″-amine}] has an IC50 (SH-SY5Y cells; [1]) of 0.7 nM, an IC50 (Human BACE1) of 77 nM and an IC50 (Human BACE2; enzyme 2.7 μg/mL) of 1010 nM.
With `[2H]C([2H])([2H])O[C@H]1CC[C@@]2(Cc3ccc(-c4cncc(C#N)c4)cc3[C@]23N=C(N)OC3([2H])[2H])C[C@@H]1C` [Compound 105, {(1S,1′R,3S,4S)-6′-(5-cyanopyridin-3-yl)-4-(methoxy-d3)-3-methyl-3′H,5″H-dispiro[cyclohexane-1,2′-indene-1′,4″-oxazol]-5″,5″-d2-2″-amine}] the IC50 (SH-SY5Y cells; [1]) was 0.4 nM, the IC50 (Human BACE1) was 13 nM and the IC50 (Human BACE2; enzyme 2.7 μg/mL) was 71 nM.
`[2H]C([2H])([2H])O[C@@H]1CC[C@]2(Cc3ccc(-c4cc(Cl)cnc4F)cc3[C@]23N=C(N)OC3([2H])[2H])C[C@H]1C` [Compound 106, {(1R,1′R,3R,4R)-4-(methoxy-d3)-3-methyl-6′-(2-fluoro-5-chloropyridin-3-yl)-3′H,5″H-dispiro[cyclohexane-1,2′-indene-1′,4″-oxazol]-5″,5″-d2-2″-amine}] was tested, and the IC50 (SH-SY5Y cells; [1]) was 2.8 nM, the IC50 (Human BACE1) was 49 nM and the IC50 (Human BACE2; enzyme 2.7 μg/mL) was 80 nM.
For `[2H]C([2H])([2H])O[C@@H]1CC[C@]2(Cc3ccc(-c4cnccc4F)cc3[C@]23N=C(N)OC3([2H])[2H])C[C@H]1C` [Compound 107, {(1R,1′R,3R,4R)-4-(methoxy-d3)-3-methyl-6′-(4-fluoropyridin-3-yl)-3′H,5″H-dispiro[cyclohexane-1,2′-indene-1′,4″-oxazol]-5″,5″-d2-2″-amine}], the IC50 (SH-SY5Y cells; [1]) was 1.8 nM, the IC50 (Human BACE1) was 294 nM and the IC50 (Human BACE2; enzyme 2.7 μg/mL) was 2110 nM.
For `[2H]C([2H])([2H])O[C@@H]1CC[C@]2(Cc3ccc(-c4cncc(C#N)c4)cc3[C@]23N=C(N)OC3([2H])[2H])C[C@H]1C` [Compound 108, {(1R,1′R,3R,4R)-4-(methoxy-d3)-3-methyl-6′-(5-cyanopyridin-3-yl)-3′H,5″H-dispiro[cyclohexane-1,2′-indene-1′,4″-oxazol]-5″,5″-d2-2″-amine}], the IC50 (SH-SY5Y cells; [1]) was 1.5 nM, the IC50 (Human BACE1) was 56 nM and the IC50 (Human BACE2; enzyme 2.7 μg/mL) was 58 nM.
`[2H]C1([2H])OC(N)=NC12c1cc(-c3cc(F)cc(F)c3)ccc1C[C@@]21CC[C@H](OC)[C@@H](C)C1` (stereo partly drawn) [Compound 110, {(1S,3S,4S)-4-methoxy-3-methyl-6′-(3,5-difluorophenyl)-3′H,5″H-dispiro[cyclohexane-1,2′-indene-1′,4″-oxazol]-5″,5″-d2-2″-amine}] gave an IC50 (SH-SY5Y cells; [1]) of 10 nM, an IC50 (Human BACE1) of 67 nM and an IC50 (Human BACE2; enzyme 2.7 μg/mL) of 96 nM.
`[2H]C1([2H])OC(N)=NC12c1cc(-c3ccnc(O)c3)ccc1C[C@@]21CC[C@H](OC)[C@@H](C)C1` (stereo partly drawn) [Compound 111] gave an IC50 (SH-SY5Y cells; [1]) of 89 nM, an IC50 (Human BACE1) of 2160 nM and an IC50 (Human BACE2; enzyme 2.7 μg/mL) of over 5000 nM.
`[2H]C1([2H])OC(N)=N[C@]12c1cc(-c3ccncc3)ccc1C[C@@]21CC[C@H](OC)[C@@H](C)C1` [Compound 112, {(1S,1′R,3S,4S)-4-methoxy-3-methyl-6′-(pyridin-4-yl)-3′H,5″H-dispiro[cyclohexane-1,2′-indene-1′,4″-oxazol]-5″,5″-d2-2″-amine}] was tested, and the IC50 (SH-SY5Y cells; [1]) was 14 nM, the IC50 (Human BACE1) was 2030 nM and the IC50 (Human BACE2; enzyme 2.7 μg/mL) was 4820 nM.
In the case of `[2H]C1([2H])OC(N)=N[C@]12c1cc(-c3cncc(C#N)c3)ccc1C[C@@]21CC[C@H](OC)[C@@H](C)C1` [Compound 113, {(1S,1′R,3S,4S)-4-methoxy-3-methyl-6′-(5-cyanopyridin-3-yl)-3′H,5″H-dispiro[cyclohexane-1,2′-indene-1′,4″-oxazol]-5″,5″-d2-2″-amine}], the IC50 (SH-SY5Y cells; [1]) is reported as 0.2 nM, the IC50 (Human BACE1) is reported as 17 nM and the IC50 (Human BACE2; enzyme 2.7 μg/mL) is reported as 64 nM.
In the case of `[2H]C1([2H])OC(N)=N[C@]12c1cc(-c3ccccn3)ccc1C[C@@]21CC[C@H](OC)[C@@H](C)C1` [Compound 114, {(1S,1′R,3S,4S)-4-methoxy-3-methyl-6′-(pyridin-2-yl)-3′H,5″H-dispiro[cyclohexane-1,2′-indene-1′,4″-oxazol]-5″,5″-d2-2″-amine}], the IC50 (SH-SY5Y cells; [1]) is reported as 8 nM, the IC50 (Human BACE1) is reported as 770 nM and the IC50 (Human BACE2; enzyme 2.7 μg/mL) is reported as 1840 nM.
`[2H]C1([2H])OC(N)=N[C@]12c1cc(-c3ccnnc3)ccc1C[C@@]21CC[C@H](OC)[C@@H](C)C1` [Compound 115, {(1S,1′R,3S,4S)-4-methoxy-3-methyl-6′-(pyridazin-4-yl)-3′H,5″H-dispiro[cyclohexane-1,2′-indene-1′,4″-oxazol]-5″,5″-d2-2″-amine}] showed an IC50 (SH-SY5Y cells; [1]) of 13 nM, an IC50 (Human BACE1) of 346 nM and an IC50 (Human BACE2; enzyme 2.7 μg/mL) of 2220 nM.
With `[2H]C1([2H])OC(N)=N[C@]12c1cc(-c3cncnc3C)ccc1C[C@]21CC[C@@H](OC)CC1` [Compound 116, {(1r,1′R,4R)-4-methoxy-6′-(4-methylpyrimidin-5-yl)-3′H,5″H-dispiro[cyclohexane-1,2′-indene-1′,4″-oxazol]-5″,5″-d2-2″-amine}] the IC50 (SH-SY5Y cells; [1]) was 26 nM, the IC50 (Human BACE1) was 1130 nM and the IC50 (Human BACE2; enzyme 2.7 μg/mL) was over 5000 nM.
